According to patent US6737383B1, “Herbicidal oxadiazolidines” (priority 1999, dated 2004):

Key:
bedstraw = assay: Test B pre/postemergence bedstraw; type: in vivo, Galium aparine
Summary of the method: (§1)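 Response is a visual 0-to-10 score relative to untreated plants, where 0 means no effect and 10 means complete control, taken twelve to sixteen days after application. Treatments went onto soil at planting and onto foliage of 1- to 4-leaf plants, using a surfactant-containing non-phytotoxic solvent.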

blackgrass = assay: Test B pre/postemergence blackgrass; type: in vivo, Alopecurus myosuroides
Summary of the method: as §1

surinam grass = assay: Test B pre/postemergence surinam grass; type: in vivo, Brachiaria decumbens
Summary of the method: as §1

cocklebur = assay: Test B pre/postemergence cocklebur; type: in vivo, Xanthium strumarium
Summary of the method: as §1

corn = assay: Test B pre/postemergence corn; type: in vivo, Zea mays
Summary of the method: as §1

morningglory = assay: Test B pre/postemergence morningglory; type: in vivo, Ipomoea hederacea
Summary of the method: as §1

pigweed = assay: Test B pre/postemergence pigweed; type: in vivo, Amaranthus retroflexus
Summary of the method: as §1

rape = assay: Test B pre/postemergence rape; type: in vivo, Brassica napus
Summary of the method: as §1

soybean = assay: Test B pre/postemergence soybean; type: in vivo, Glycine max
Summary of the method: as §1

sugar beet = assay: Test B pre/postemergence sugar beet; type: in vivo, Beta vulgaris
Summary of the method: as §1

velvetleaf = assay: Test B pre/postemergence velvetleaf; type: in vivo, Abutilon theophrasti
Summary of the method: as §1

wild oat = assay: Test B pre/postemergence wild oat; type: in vivo, Avena fatua
Summary of the method: as §1

purple nutsedge = assay: Test B pre/postemergence purple nutsedge; type: in vivo, Cyperus rotundus
Summary of the method: as §1

rice = assay: Test B flood test rice; type: in vivo, Oryza sativa
Summary of the method: (§2)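 Plants were grown to the 2-leaf stage before treatment with test chemical, then held in a greenhouse for twelve to sixteen days. Injury was visually rated against untreated controls on a 0–10 scale, where 0 is no effect and 10 is complete control.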

smallflower flatsedge = assay: Test B flood test smallflower flatsedge; type: in vivo, Cyperus difformis
Summary of the method: as §2

bamyardgrass = assay: Test B flood test barnyardgrass; type: in vivo, Echinochloa crus-galli
Summary of the method: as §2

[1] = Postemergence, Rate 250 g/ha, scale 0 to 10, 0 no effect, 10 complete control
[2] = Postemergence, Rate 1000 g/ha, scale 0 to 10 (0 no effect, 10 complete control)
[3] = Preemergence, Rate 125 g/ha, scale 0 to 10 (0 no effect, 10 complete control)
[4] = Preemergence, Rate 250 g/ha, scale of 0 to 10 where 0 is no effect and 10 is complete control
[5] = Preemergence, Rate 500 g/ha, scale 0 (no effect) to 10 (complete control)
[6] = Rate 125 g/ha, Postemergence, scale 0 to 10, 0 no effect, 10 complete control
[7] = Rate 500 g/ha, Postemergence, 0 to 10 scale (0 no effect, 10 complete control)
[8] = Rate 1000 g/ha, Preemergence, scale 0 to 10 (0 no effect, 10 complete control)
[9] = Rate 125 g/ha, Postemergence section (flood test species), scale 0 to 10, 0 no effect, 10 complete control
[10] = Rate 500 g/ha, Postemergence section of Table B, 0 to 10 scale (0 no effect, 10 complete control)
[11] = flood test, listed under Postemergence, Rate 250 g/ha, scale 0 to 10, 0 no effect, 10 complete control

CCN(CC)C(=O)n1oc(=O)n(-c2ccc(OC(F)(F)F)cc2)c1=O [Compound 12] was tested, and the “Bedstraw plant response rating” value (bedstraw; [1]) was 0, the “Bedstraw plant response rating” value (bedstraw; [2]) was 0 and the “Plant response rating, Bedstraw” value (bedstraw; [3]) was 0. The “Plant response rating, Bedstraw” value (bedstraw; [4]) was 0, the “Bedstraw plant response rating” value (bedstraw; [5]) was 0 and the “Bedstraw plant response rating” value (bedstraw; [6]) was 0. For the same compound, the “Bedstraw plant response rating” value (bedstraw; [7]) was 0, the “Plant response rating, Bedstraw” value (bedstraw; [8]) was 0 and the “Blackgrass plant response rating” value (blackgrass; [1]) was 0. For the same compound, the “Blackgrass plant response rating” value (blackgrass; [2]) was 0, the “Plant response rating, Blackgrass” value (blackgrass; [3]) was 0 and the “Plant response rating, Blackgrass” value (blackgrass; [4]) was 0. The “Blackgrass plant response rating” value (blackgrass; [5]) was 2, the “Blackgrass plant response rating” value (blackgrass; [6]) was 0 and the “Blackgrass plant response rating” value (blackgrass; [7]) was 0. For the same compound, the “Plant response rating, Blackgrass” value (blackgrass; [8]) was 4, the “B. signalgrass plant response rating” value (surinam grass; [1]) was 0 and the “B. signalgrass plant response rating” value (surinam grass; [2]) was 0. The “Plant response rating, B. signalgrass” value (surinam grass; [3]) was 0, the “Plant response rating, B. signalgrass” value (surinam grass; [4]) was 0 and the “B. signalgrass plant response rating” value (surinam grass; [5]) was 0. For the same compound, the “B. signalgrass plant response rating” value (surinam grass; [6]) was 0, the “B. signalgrass plant response rating” value (surinam grass; [7]) was 0 and the “Plant response rating, B. signalgrass” value (surinam grass; [8]) was 6. The “Cocklebur plant response rating” value (cocklebur; [1]) was 0, the “Cocklebur plant response rating” value (cocklebur; [2]) was 0 and the “Plant response rating, Cocklebur” value (cocklebur; [3]) was 0. The “Plant response rating, Cocklebur” value (cocklebur; [4]) was 0, the “Cocklebur plant response rating” value (cocklebur; [5]) was 0 and the “Cocklebur plant response rating” value (cocklebur; [6]) was 0. The “Cocklebur plant response rating” value (cocklebur; [7]) was 0, the “Plant response rating, Cocklebur” value (cocklebur; [8]) was 0 and the “Corn plant response rating” value (corn; [1]) was 0. For the same compound, the “Corn plant response rating” value (corn; [2]) was 0, the “Plant response rating, Corn” value (corn; [3]) was 0 and the “Plant response rating, Corn” value (corn; [4]) was 0. The “Corn plant response rating” value (corn; [5]) was 0, the “Corn plant response rating” value (corn; [6]) was 0 and the “Corn plant response rating” value (corn; [7]) was 0. For the same compound, the “Plant response rating, Corn” value (corn; [8]) was 0, the “Morningglory plant response rating” value (morningglory; [1]) was 0 and the “Morningglory plant response rating” value (morningglory; [2]) was 0. For the same compound, the “Plant response rating, Morningglory” value (morningglory; [3]) was 0, the “Plant response rating, Morningglory” value (morningglory; [4]) was 0 and the “Morningglory plant response rating” value (morningglory; [5]) was 0. The “Morningglory plant response rating” value (morningglory; [6]) was 0, the “Morningglory plant response rating” value (morningglory; [7]) was 0 and the “Plant response rating, Morningglory” value (morningglory; [8]) was 0. The “Redroot pigweed plant response rating” value (pigweed; [1]) was 0, the “Redroot pigweed plant response rating” value (pigweed; [2]) was 0 and the “Plant response rating, Redroot pigweed” value (pigweed; [3]) was 0. For the same compound, the “Plant response rating, Redroot pigweed” value (pigweed; [4]) was 0, the “Redroot pigweed plant response rating” value (pigweed; [5]) was 0 and the “Redroot pigweed plant response rating” value (pigweed; [6]) was 0. The “Redroot pigweed plant response rating” value (pigweed; [7]) was 0, the “Plant response rating, Redroot pigweed” value (pigweed; [8]) was 0 and the “Rape plant response rating” value (rape; [1]) was 0. The “Rape plant response rating” value (rape; [2]) was 0, the “Plant response rating, Rape” value (rape; [3]) was 0 and the “Plant response rating, Rape” value (rape; [4]) was 0. For the same compound, the “Rape plant response rating” value (rape; [5]) was 0, the “Rape plant response rating” value (rape; [6]) was 0 and the “Rape plant response rating” value (rape; [7]) was 0. The “Plant response rating, Rape” value (rape; [8]) was 0, the “Soybean plant response rating” value (soybean; [1]) was 0 and the “Soybean plant response rating” value (soybean; [2]) was 1. For the same compound, the “Plant response rating, Soybean” value (soybean; [3]) was 0, the “Plant response rating, Soybean” value (soybean; [4]) was 0 and the “Soybean plant response rating” value (soybean; [5]) was 0. For the same compound, the “Soybean plant response rating” value (soybean; [6]) was 0, the “Plant response rating, Soybean” value (soybean; [8]) was 0 and the “Sugarbeets plant response rating” value (sugar beet; [1]) was 0. The “Sugarbeets plant response rating” value (sugar beet; [2]) was 0, the “Plant response rating, Sugarbeets” value (sugar beet; [3]) was 0 and the “Plant response rating, Sugarbeets” value (sugar beet; [4]) was 0. The “Sugarbeets plant response rating” value (sugar beet; [5]) was 0, the “Sugarbeets plant response rating” value (sugar beet; [6]) was 0 and the “Plant response rating, Sugarbeets” value (sugar beet; [8]) was 0. For the same compound, the “Velvetleaf plant response rating” value (velvetleaf; [1]) was 0, the “Velvetleaf plant response rating” value (velvetleaf; [2]) was 0 and the “Plant response rating, Velvetleaf” value (velvetleaf; [3]) was 0. The “Plant response rating, Velvetleaf” value (velvetleaf; [4]) was 0, the “Velvetleaf plant response rating” value (velvetleaf; [5]) was 0 and the “Velvetleaf plant response rating” value (velvetleaf; [6]) was 0. For the same compound, the “Plant response rating, Velvetleaf” value (velvetleaf; [8]) was 0, the “Wild oats plant response rating” value (wild oat; [1]) was 0 and the “Wild oats plant response rating” value (wild oat; [2]) was 0. For the same compound, the “Plant response rating, Wild oats” value (wild oat; [3]) was 0, the “Plant response rating, Wild oats” value (wild oat; [4]) was 0 and the “Wild oats plant response rating” value (wild oat; [5]) was 0. For the same compound, the “Wild oats plant response rating” value (wild oat; [6]) was 0, the “Plant response rating, Wild oats” value (wild oat; [8]) was 0 and the “Nutsedge plant response rating” value (purple nutsedge; [1]) was 0. For the same compound, the “Nutsedge plant response rating” value (purple nutsedge; [2]) was 0, the “Plant response rating, Nutsedge” value (purple nutsedge; [3]) was 0 and the “Plant response rating, Nutsedge” value (purple nutsedge; [4]) was 0. For the same compound, the “Nutsedge plant response rating” value (purple nutsedge; [5]) was 0, the “Nutsedge plant response rating” value (purple nutsedge; [6]) was 0 and the “Nutsedge plant response rating” value (purple nutsedge; [7]) was 0. For the same compound, the “Plant response rating, Nutsedge” value (purple nutsedge; [8]) was 0, the “Rice plant response rating” value (rice; [2]) was 0 and the “Rice plant response rating” value (rice; [9]) was 0. For the same compound, the “Rice plant response rating” value (rice; [10]) was 0, the “Rice plant response rating” value (rice; [11]) was 0 and the “S. Flatsedge plant response rating” value (smallflower flatsedge; [2]) was 0. The “S. Flatsedge plant response rating” value (smallflower flatsedge; [9]) was 0, the “S. Flatsedge plant response rating” value (smallflower flatsedge; [11]) was 0 and the “Barnyardgrass plant response rating” value (bamyardgrass; [2]) was 0. For the same compound, the “Barnyardgrass plant response rating” value (bamyardgrass; [9]) was 0, the “Barnyardgrass plant response rating” value (bamyardgrass; [10]) was 0 and the “Barnyardgrass plant response rating” value (bamyardgrass; [11]) was 0.
